Results from patent publication US7445894B2, “Compositions and methods for detection and isolation of phosphorylated molecules” (priority 2002, dated 2008).

Tests used:
β-casein = molecular target: T1, β-casein (Bos taurus, UniProt P02666); experiment: Phosphoprotein detection on HydroGel microarray; conditions: pentaphosphorylated protein, binding solution with gallium chloride
T1 sequence (P02666 16-224): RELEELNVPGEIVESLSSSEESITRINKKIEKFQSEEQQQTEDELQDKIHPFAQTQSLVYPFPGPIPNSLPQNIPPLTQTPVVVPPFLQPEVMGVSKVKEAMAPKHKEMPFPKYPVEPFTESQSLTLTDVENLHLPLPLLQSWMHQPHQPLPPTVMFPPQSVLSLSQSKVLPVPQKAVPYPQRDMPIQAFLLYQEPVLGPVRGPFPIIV
Protocol: The protein was loaded in a two-fold dilution series from 166 pg-0.324 pg on the microarray.
Four specific, purified proteins including β-casein, ovalbumin, pepsin and bovine serum albumin were arrayed from a source plate (384 well plate) at a concentration of 0.975 μg/mL-0.5 mg/mL in water, onto HydroGel coated slides (Perkin Elmer), using the BioChip Arrayer™ (Packard Instrument Co., Meriden, Conn.). The BioChip Arrayer™ utilizes a PiezoTip™ Dispenser consisting of 4 glass capillaries. Proteins were dispensed from the PiezoTip™ by droplets 333 pL in volume to create array spots 175 microns in diameter with a 500 micron horizontal and vertical pitch (pitch=center to center spacing of spots). Proteins were arrayed in duplicate in four rows, with 10 dilution points, resulting in an array of 160 spots. The resulting concentration range of the array was 166.5 pg/spot-0.325 pg/spot. For detection of phosphoproteins, slides were incubated for 1 hour on a rotator in 1 μM of Compound 2, in buffer containing 0.5 M NaCl, 20% 1,2-propanediol, 1 μM GaCl3, and 0.05 M NaOAc, pH 4.0. Slides were then washed for 1 hour on a rotator in 0.05 M NaOAc, pH 4.0, containing 10% methanol followed by a 15 minute water wash. […] Phosphate content per protein was determined to be as follows: β-casein, five phosphates; ovalbumin, two phosphates; pepsin, one phosphate; and BSA, no phosphates.

pDSIP = molecular target: T2, pDSIP (Oryctolagus cuniculus, UniProt P01158); experiment: Phosphopeptide detection on HydroGel microarray; conditions: monophosphorylated peptide, binding solution with gallium chloride
T2 construct: purchased SynPep Corporation
Protocol: The peptide was loaded in a two-fold dilution series from […] on the microarray.
Two peptides, Kemptide and pDSIP, were arrayed on to HydroGel coated slides (Perkin Elmer) from a source plate (384-well) with a concentration of 0.03125 to 2 mg/mL peptide in water. The amino acid sequence of Kemptide is LRRASLG (SEQ ID NO. 1, MW 771.9) the amino acid sequence of pDSIP is […] (SEQ ID NO. 2, MW 929.5), wherein the serine residue is substituted with PO2H. Arrays were spotted using a manual glass slide arrayer (V & P Scientific, San Diego, Calif.) fixed with 4 rows of 8 pins (32 total), ˜500 micron diameter spot size, […] horizontal pitch and 750 micron vertical pitch (pitch=center to center spacing of spots). The hand arrayer collected 6 nL of peptide from the source plate and transferred ˜6 nL to the array surface by direct contact. The resultant peptide concentration was 0.18 to 12 ng/spot. Peptides were arrayed in replicates of 6, resulting in an array of 84 spots. For specific detection of pDSIP, the phosphopeptide, slides were incubated for 1 hour on a rotator in 1 μM dye of compound 2 in buffer containing 0.5 M NaCl, 20% 1,2-propanediol, 1 μM GaCl3, and 0.05 M NaOAc, pH 4.0. Slides were then washed for 1 hour on a rotator in 0.05 M NaOAc, pH 4.0, containing 10% methanol followed by a 15-minute water wash. […]

amount detected on HydroGel microarray (β-casein): 0.65 pg
amount detectable on HydroGel microarray (pDSIP): 300 fg
Substance: Rhod-5F [Compound 2]
